Values joined by “and” are separate entries in the source; they are usually repeats but may differ in a detail not shown here. Equal values may be shown once. Read-outs that look alike come from different tables or passages of the source. One block for each compound: values may come before it.
Assays:
[1] = system: A498 kidney cancer cell line; test: MTT cell viability assay, A498; assay type: cell-based; conditions: Homo sapiens, 24 h
Experimental: (§1) Normal or cancer cells (2×10^3 to 1×10^4 cells/well) were seeded in 96-well plate for overnight and treated with different compounds for 24 h to 72 h. Cells growth were determined by MTT-based colorimetric assays according to. Viability of the test cells treated with vehicle (0.5% DMSO) only was defined as 100% viable. Survival of cells after treatment with DETDs was calculated using the following formula: viable cell number (%)=OD570 (treated cell culture)/OD570 (vehicle control)×100.
(§2) Based on toxicity results of DET and DETDs on different breast cancer and melanoma cell lines, we selected DETD-6, -32, -35 and -39, under the consideration of structure activity relationship for evaluating their suppression effect against other cancer types of cell line with indicated tumor origin in Table 5. […] The cells were treated with compounds for 24 h and then subjected to MTT assays.

[2] = system: B16-F10 (NRAS mutation); test: MTT cell viability assay, B16-F10 melanoma; assay type: cell-based; conditions: Mus musculus, B16-F10, 24 h
In short: (§3)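 MTT readout at OD570, normalised to 0.5% DMSO vehicle-treated cells set as 100% viable. Compound exposure lasted 24 h to 72 h after overnight seeding of 2×10^3 to 1×10^4 cells/well.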

[3] = system: MCF-7 (ER+, Her2−) human breast cancer cells; test: MTT cell viability assay, MCF-7 cells; assay type: cell-based
In short: (§4)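 MTT readout at OD570; % viable = treated/vehicle ×100, vehicle (0.5% DMSO) set as 100%. Seeding 2×10^3–1×10^4 cells/well overnight, compound exposure 24 h to 72 h.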

[4] = system: Melanocyte (Normal cells); test: MTT cell viability assay, normal melanocytes; assay type: cell-based, human; conditions: Homo sapiens, Melanocyte, 24 h
In short: as §3

[5] = system: LPS-induced nitric oxide (NO) production in RAW 264.7 cells; test: Nitric oxide production in LPS-stimulated macrophages (Griess); assay type: cell-based, mouse
In short: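 RAW 264.7 macrophages (2×10^5 cells/well) were pretreated with compound for 1 h and then stimulated with 100 ng/μL LPS for 24 h. NO was measured as nitrite in the medium by the Griess reaction. Viability was checked in parallel by MTT.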

[6] = system: U-87MG brain cancer cell line; test: MTT cell viability assay, U-87MG; assay type: cell-based; conditions: Homo sapiens, 24 h
Experimental: as §1, §2

[7] = system: RAW264.7 (normal macrophage); test: MTT cell viability assay, RAW264.7 macrophages; assay type: cell-based, mouse; conditions: Mus musculus, RAW264.7, 24 h
In short: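 RAW264.7 macrophages (2×10^5 cells/well) pretreated with compounds 1 h, then incubated 24 h with or without 100 ng/μL LPS. Viability by MTT colorimetric assay run in parallel with Griess nitrite measurement.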

[8] = system: KATO III stomach cancer cell line; test: MTT cell viability assay, KATO III; assay type: cell-based; conditions: Homo sapiens, 24 h
Experimental: as §1, §2

[9] = system: SK-N-MC neuroepithelioma line; test: MTT cell viability assay, SK-N-MC; assay type: cell-based; conditions: Homo sapiens, 24 h
Experimental: as §1, §2

[10] = system: HCT-116 colon cancer cell line; test: MTT cell viability assay, HCT-116; assay type: cell-based; conditions: Homo sapiens, 24 h
Experimental: as §1, §2

[11] = system: MeWo (No NRAS or BRAF mutation); test: MTT cell viability assay, MeWo melanoma; assay type: cell-based, human; conditions: Homo sapiens, MeWo, 24 h
In short: as §3

[12] = system: U937 lymphoma line; test: MTT cell viability assay, U937; assay type: cell-based; conditions: Homo sapiens, U-937, 24 h
Experimental: as §1, §2

[13] = system: TS/A (ER+, Her2−) murine mammary cancer cells; test: MTT cell viability assay, TS/A cells; assay type: cell-based; conditions: Mus musculus
In short: as §4

[14] = system: NES-SA uterus cancer cell line; test: MTT cell viability assay, NES-SA; assay type: cell-based; conditions: 24 h
Experimental: as §1, §2

[15] = system: HTB-68 (NRAS mutation); test: MTT cell viability assay, HTB-68 melanoma; assay type: cell-based, human; conditions: Homo sapiens, 24 h
In short: as §3

[16] = system: melanoma cell lines B16-F10, MeWo, A375, A2058, HTB-68; test: MTT cell viability assay, all melanoma cell lines; assay type: cell-based; conditions: 24 h, read-out: IC50 values over all types of melanoma cell lines
Experimental: as §1
Several genes are involved in melanoma development and pathology; specifically, mutation in V-raf murine sarcoma viral oncogene homolog B1 (B-RAF) occurs approximately 50-60% and in neuroblastoma RAS viral oncogene homolog (N-RAS) occurs about 30% of malignant melanomas. A spectrum of wild-type or mutated melanoma cell lines including B16-F10, MeWo, A375, A2058, HTB-68, and melanocyte were used to study anti-melanoma cell proliferation activity of parental phytocompound DET and newly synthesized DETDs.

[17] = system: MDA-MB-231 cells; test: Compound-drug combination assay with PTX; assay type: cell-based, human; conditions: 0-4 μM compound, 0-25 nM PTX
Experimental: Cell proliferation was measured by MTT assay. Isobologram analysis and Chou-Talalay method was used to determine the effects of compound drug combinations. The interaction of DETDs and PLX4032 or PTX was determined by the combination index (CI), and the CI plot was generated using CompuSyn software. The combined effects of two compounds can be categorized as follows: CI=1 indicates additive interaction, CI<1 indicates synergism, and CI>1 indicates antagonism.
To investigate whether or not DETD-35 and DETD-39 act synergistically with PTX against MDA-MB-231 cell activity, anti-proliferation assay using MTT reagent was performed to obtain the IC60 value of each compound. […] Based on the IC60 values, DETD-35 or DETD-39 ranging from 0 to 4 μM and PIX from 0 to 25 nM were used for compound-drug combination study. Classic isobologram analysis and Chou-Talalay method were conducted to investigate the synergistic effect of compound and drug. Combination index (CI) was calculated with CalcuSyn software (Version 2.0, Biosoft) and expressed as CI vs. Fa (fraction affected). CI<1 indicates synergy; CI=1 indicates additive effect; and CI>1 indicates antagonism.

[18] = system: A2058 (BRAF mutation); test: MTT cell viability assay, A2058 melanoma; assay type: cell-based, human; conditions: Homo sapiens, A2058, 24 h
In short: as §3

[19] = system: A375 (BRAF mutation); test: MTT cell viability assay, A375 melanoma; assay type: cell-based, human; conditions: Homo sapiens, MTT
In short: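 A375 cells were seeded at 2×10^3 to 1×10^4 per well overnight and then exposed to compounds for 24 h to 72 h. Viability was measured by MTT absorbance at OD570 relative to 0.5% DMSO vehicle (100%), and IC50 was derived from it. Combination with PLX4032 was scored by combination index.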

[20] = system: M10 normal mammary epithelial cells; test: MTT cell viability assay, M10 normal cells; assay type: cell-based, human; conditions: 24 h
In short: as §4

[21] = system: PC6 lung cancer cell line; test: MTT cell viability assay, PC6; assay type: cell-based; conditions: 24 h
Experimental: as §1, §2

[22] = system: MDA-MB-231 (ER−, PR−, Her2−) human breast cancer cells; test: MTT cell viability assay, MDA-MB-231 cells; assay type: cell-based; conditions: for IC50: Homo sapiens
In short: as §4

[23] = system: PC3 (Prostate); test: MTT cell viability assay, PC3; assay type: cell-based; conditions: 24 h
Experimental: as §1, §2

[24] = system: A375 human melanoma tumor; test: A375 melanoma xenograft model in NOD/SCID mice; assay type: in vivo, mouse; conditions: 20 mg/kg i.p.; PLX4032 every day, DET and DETD-35 every two days
Experimental: (§5) A375 and A375-R melanoma cells (3×10^6) were injected subcutaneously to the flanks of the six weeks old NOD/SCID mice. One week after the inoculation, the mice were randomized into treated groups (n=8 per group) and the treatments were started. Body weight and tumor volume of the mice were recorded every three days using formula a×b^2×0.5, where a and b represented the larger and smaller tumor diameters.
We used A375 human melanoma xenograft model to evaluate the in vivo bioefficacy of DET. DETD-35, PLX4032 and compound drug combination. […] For single compound or drug treatment group, PLX4032 was administered i.p. every day and DET and DETD-35 were administered i.p. every two days. For combination treatment, PLX4032 was administered every two days while DET and DETD-35 were administered every four days. […] Compound-drug combinational treatments were carried out with alternative administration of DET (20 mg/kg) or DETD-35 (20 mg/kg) and PLX4032 (20 mg/kg) by which DET or DETD-35 and PLX4032 treatment frequency were only half of the single compound or drug administration alone.

[25] = system: DMBA/TPA-induced skin papillomas accelerated by PLX4032
Experimental: Dorsal skin of six weeks old female FVB/N mice were shaved and treated with topical application of DMBA (25 μg in 100 μL acetone). One week after DMBA treatment, the same skin area were treated topically twice weekly with 12-O-tetradecanoylphorbol-13-acetate (TPA) (4 μg in 100 μL acetone). The area was regularly shaved and tumor formation was assessed twice weekly, and tumors were defined as raised lesions of a minimum diameter of 1 mm.

[26] = system: A375-R PLX4032-resistant melanoma tumor; test: A375-R melanoma xenograft model in NOD/SCID mice; assay type: in vivo, mouse; conditions: PLX4032 75 mg/kg
Experimental: as §5
To study whether or not DETD-35 could overcome acquired resistance to BRAF inhibitor, we generated A375 cell line resistant to PLX4032 (designated A375-R) as described above. We then conducted A375-R orthotopic xenograft study.

[27] = system: A375-R acquired vemurafenib resistance melanoma cells; test: MTT cell viability assay, PLX4032-resistant A375-R; assay type: cell-based, human; conditions: 72 h
Experimental: A375-R, acquired vemurafenib resistance melanoma cell was generated from A375 parental cell and grown in same conditions as A375 cell.
as §1
To study the mechanisms underlying how DETD-35 overcomes acquired resistance to BRAF inhibitor, we generated A375 cell line resistant to PLX4032 (designated A375-R). Briefly, A375 melanoma cells were seeded in T75 plate and treated with ascending concentration of PLX4032 (20, 50, 100, 250, 500, 1000, 2000 nM) through approximately 2 months and 20 passages.

[28] = system: MDA-MB-231 cells
Experimental: Briefly, cells (5×10^3 cells/well) were seeded in 96-well plates and treated with BSO at concentrations 100 μM, 45 μM, 18 μM, 7.2 μM, 2.8 μM, 1.15 μM, 461 nM, 184 nM, 74 nM and 29 nM, and sulfasalazine at concentrations 62.75 μM, 25.10 μM, 10 μM, 4 μM, 1.6 μM, 642 nM, 257 nM, 102 nM, 41 nM and 16.4 nM for 30 h, and then 12 μM DET or 3 μM DETD-35 were added in the cultural medium to treat the cells for another 24 h. Cell proliferation was measured by MIT assay.

[29] = DMBA/TPA + PLX4032 20 mg/kg i.p. twice per week

IC50 [1]: 480 nM
IC50 ([2]; 24 h, read-out: IC50 on cell viability, B16-F10 (NRAS mutation)): 1700 nM
IC50 ([2]; Table 5, 24 h, read-out: IC50 viability B16-F10 (mouse) (Skin)): 1700 nM
IC50 ([3]; MCF7, 24 h, read-out: IC50 on cell viability, MCF-7 (ER+, Her2−)): 2100 nM
IC50 ([3]; MCF7, Table 5, 24 h, read-out: IC50 viability MCF-7 (Breast)): 2400 nM
fold decrease in IC50 of NO production vs DET [5]: 3 fold
IC50 ([5]; Mus musculus, LPS-stimulated RAW264.7, nitrite 24 h after LPS): 1000 nM
IC50 [6]: 150 nM
IC50 [8]: 290 nM
IC50 [9]: 110 nM
IC50 [10]: 100 nM
IC50 [11]: 3500 nM
IC50 [12]: 100 nM
IC50 ([13]; 24 h, read-out: IC50 on cell viability, TS/A (ER+, Her2−)): 800 nM
IC50 ([13]; Table 5, 24 h, read-out: IC50 viability TS/A (mouse) (Breast)): 800 nM
IC50 [14]: 140 nM
IC50 [15]: 3200 nM
IC50 [16]: 1600 to 9900 nM and 1600 to 3500 nM
IC50 [18]: 2400 nM
IC50 ([19]; A-375, 24 h, 24 h, read-out: IC50 on cell viability, A375 (BRAF mutation)): 1600 nM
IC50 [21]: 110 nM
IC50 ([22]; MDA-MB-231, 24 h, read-out: IC50 on cell viability, MDA-MB-231 (ER−, PR−, Her2−)): 1900 nM
IC50 ([22]; MDA-MB-231, Table 5, 24 h, read-out: IC50 viability MDA-MB-231 (Breast)): 1900 nM
IC50 [23]: 2600 nM
Structure (SMILES): C=C1C(=O)OC2CC3=C[C@@H](C/C(C)=C/C(OC(=O)/C=C/c4cccc(OC)c4)[C@H]12)OC3=O (stereo partly drawn) [DETD-39]
IC50 [4]: 9000 nM
IC50 [7]: 3500 nM
combination effect with PTX (isobologram, combination index) [17]: acted synergistically
IC50 on cell viability, M10 (normal) [20]: some toxicity
IC50 ([20]; Homo sapiens, Epithelial cell): 3700 nM
IC60 on MDA-MB-231 cells ([22]; 24 h): 3790 nM

Structure (SMILES): CCCS(=O)(=O)Nc1ccc(F)c(C(=O)c2c[nH]c3ncc(-c4ccc(Cl)cc4)cc23)c1F [PLX4032, Vemurafenib]
reduction of tumor mass vs tumor control [24]: 71.9%
start of papillomas formation ([25]; DMBA-TPA treated mice + PLX4032, without PLX4032 week 6 to 7): 3 to 4 weeks
papillomas size in average [25, 29]: 77.6 mm^3
total papillomas number [25, 29]: 25.6
IC50 ([19]; A-375, 72 h, 72 h, read-out: IC50 on A375 cells): 70 nM
tumor growth rate and size relative to control group (100%) [26]: 98%
fold less sensitive, A375-R vs parental A375 [27]: more than 100 fold
IC50 ([27]; Homo sapiens, MTT): 8300 nM

Structure (SMILES): O=C(O)c1cc(/N=N/c2ccc(S(=O)(=O)Nc3ccccn3)cc2)ccc1O [sulfasalazine]
cytotoxicity of blocker alone [28]: did not show any cytotoxicity

Source: US10238631B2, “Sesquiterpene derivatives and their use in inflammation or cancer treatment” (Academia Sinica, priority 2014, dated 2019)
